Article PMC10797628

Columns and labels:
human 5-HT1B receptor [1] = molecular target: T1, human 5-HT1B receptor (Homo sapiens, UniProt P28222); assay: cAMP accumulation (LANCE Ultra TR-FRET) in HEK293T cells, WT 5-HT1B; type: cell-based; settings: for 5-HT1B EMAX (%) / Emax: normalized to basal (0%) and 10 μM 5-CT (100%); for EC50: 5-HT1B pEC50, WT receptor; for Emax: HEK-293T, read-out: 5-HT1B EMAX (%), WT receptor
T1 construct: host or cells: HEK293T
Description: (§1) Briefly, cells transfected with the desired receptor construct and compounds were incubated in the dark for 90 min at 37 °C. After incubation, cAMP detection reagents were added, and TR-FRET was used to quantify the cAMP produced.
(§2) The functional activity of compounds was determined by stimulating cells expressing the desired receptor with FSK and test compound in parallel with 12 known concentrations of cAMP. The known concentrations of cAMP were used to create a standard curve for each experiment that was used to interpolate the unknown values of cAMP in wells with test compounds. […] The EC50 and EMAX values were determined using the “dose response – log[agonist] vs response (three parameter)” nonlinear regression model in Prism and transformed to pEC50 values, reported as mean ± SD.
(§3) Summary of functional assay conditions at various 5-HT1 receptor point mutation constructs.

human 5-HT1D receptor [2] = molecular target: T2, human 5-HT1D receptor (Homo sapiens, UniProt P28221); assay: cAMP accumulation (LANCE Ultra TR-FRET) in HEK293T cells, WT 5-HT1D; type: cell-based; settings: for 5-HT1D EMAX (%): WT receptor; for 5-HT1D EMAX (%) / Emax: normalized to basal (0%) and 10 μM 5-CT (100%); for EC50: 5-HT1D pEC50, WT receptor, cAMP accumulation, HEKt cells, mean ± SD; for Emax: HEK-293T, read-out: 5-HT1D EMAX (%), WT receptor
T2 construct: host or cells: HEK293T
T2 sequence (P28221 whole entry): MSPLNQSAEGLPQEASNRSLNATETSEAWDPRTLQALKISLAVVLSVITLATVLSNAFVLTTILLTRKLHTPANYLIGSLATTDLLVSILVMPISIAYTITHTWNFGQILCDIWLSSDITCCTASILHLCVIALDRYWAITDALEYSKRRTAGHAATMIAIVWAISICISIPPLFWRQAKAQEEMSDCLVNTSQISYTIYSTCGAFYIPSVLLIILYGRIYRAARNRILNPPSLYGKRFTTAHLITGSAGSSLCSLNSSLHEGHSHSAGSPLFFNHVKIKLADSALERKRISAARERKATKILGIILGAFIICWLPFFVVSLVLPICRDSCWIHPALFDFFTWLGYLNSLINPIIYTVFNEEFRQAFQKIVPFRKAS
Description: as §1, §2, §3

S5.42A 5-HT1B receptor = S5.42A 5-HT1B receptor (Homo sapiens, UniProt P28222, S212A); assay: cAMP accumulation in HEK293T cells, S5.42A 5-HT1B; type: cell-based; set-up: host or cells: HEK293T; settings: point-mutated receptor, 3 independent experiments
Chain of S5.42A 5-HT1B receptor (P28222 whole entry S212A): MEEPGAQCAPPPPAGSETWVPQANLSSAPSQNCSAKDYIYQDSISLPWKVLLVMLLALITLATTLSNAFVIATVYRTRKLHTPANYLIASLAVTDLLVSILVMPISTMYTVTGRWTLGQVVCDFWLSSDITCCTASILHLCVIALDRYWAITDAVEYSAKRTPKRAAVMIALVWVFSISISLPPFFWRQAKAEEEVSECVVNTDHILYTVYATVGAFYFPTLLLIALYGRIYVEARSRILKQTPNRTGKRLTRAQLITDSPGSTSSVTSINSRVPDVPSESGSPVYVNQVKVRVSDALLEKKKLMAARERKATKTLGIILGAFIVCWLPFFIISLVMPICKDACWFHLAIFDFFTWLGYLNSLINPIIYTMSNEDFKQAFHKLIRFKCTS
Description: as §1, §2
Cell Type Receptor Cell Density [Forskolin] Incubation time
as §3

human 5-HT1A receptor [3] = molecular target: T3, human 5-HT1A receptor (Homo sapiens, UniProt P08908); assay: Radioligand binding (saturation and competition), WT 5-HT1A; settings: WT receptor, [^3H]5-CT competition, mean ± SD; for Ki: Affinity (pKi ± SD) 5-HT1A
T3 construct: host or cells: HEK293T
T3 sequence (P08908 1-422): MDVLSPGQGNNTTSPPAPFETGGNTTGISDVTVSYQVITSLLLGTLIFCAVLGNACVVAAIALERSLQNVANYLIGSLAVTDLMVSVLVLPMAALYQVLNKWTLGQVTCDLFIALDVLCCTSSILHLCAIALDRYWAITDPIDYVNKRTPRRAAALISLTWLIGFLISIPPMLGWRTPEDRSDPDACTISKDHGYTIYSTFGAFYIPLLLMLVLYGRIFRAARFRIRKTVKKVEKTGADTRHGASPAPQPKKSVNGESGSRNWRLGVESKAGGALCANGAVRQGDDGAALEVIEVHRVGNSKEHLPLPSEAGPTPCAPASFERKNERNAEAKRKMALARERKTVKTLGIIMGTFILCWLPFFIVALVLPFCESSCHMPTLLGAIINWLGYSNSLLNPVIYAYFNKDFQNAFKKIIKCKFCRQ

human 5-HT1B receptor [4] = molecular target: T1, human 5-HT1B receptor; assay: Radioligand binding (saturation and competition), WT 5-HT1B; settings: Affinity (pKi ± SD) 5-HT1B, WT receptor; [^3H]5-CT competition; mean ± SD
human 5-HT1D receptor [5] = molecular target: T2, human 5-HT1D receptor; assay: Radioligand binding (saturation and competition), WT 5-HT1D; settings: Affinity (pKi ± SD) 5-HT1D, WT receptor; [^3H]5-CT competition; mean ± SD
human 5-HT1F receptor = molecular target: T4, human 5-HT1F receptor (Homo sapiens, UniProt P30939); assay: Radioligand binding (saturation and competition), WT 5-HT1F
T4 construct: host or cells: HEK293T
T4 sequence (P30939 1-366): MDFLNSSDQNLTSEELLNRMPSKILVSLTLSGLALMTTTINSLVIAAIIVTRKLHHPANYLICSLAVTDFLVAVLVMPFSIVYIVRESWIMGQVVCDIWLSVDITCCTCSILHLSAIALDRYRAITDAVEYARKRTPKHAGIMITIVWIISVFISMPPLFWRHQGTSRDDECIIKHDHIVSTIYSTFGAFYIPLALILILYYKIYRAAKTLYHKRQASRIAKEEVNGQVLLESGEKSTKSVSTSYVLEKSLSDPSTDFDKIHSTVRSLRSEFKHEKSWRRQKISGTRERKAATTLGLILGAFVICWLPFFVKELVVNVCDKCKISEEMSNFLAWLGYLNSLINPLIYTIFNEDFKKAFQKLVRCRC

human 5-HT1A receptor [6] = molecular target: T3, human 5-HT1A receptor; assay: cAMP accumulation (LANCE Ultra TR-FRET) in HEK293T cells, WT 5-HT1A; type: cell-based; settings: for EC50: 5-HT1A pEC50, WT receptor, cAMP accumulation, HEKt cells, mean ± SD; for Emax: HEK-293T, read-out: 5-HT1A EMAX (%), WT receptor
Description: as §1, §2, §3

[7] = normalized to basal (0%) and 10 μM 5-CT (100%)
[8] = cAMP accumulation, HEKt cells, mean ± SD

T1 sequence (P28222 whole entry): as the sequence (P28222 whole entry S212A) above, with A212S counted along it

Compound: NCCc1c[nH]c2ccc(C(N)=O)cc12 [5-CT, 5-carboxamidotryptamine, reference compound]
- 5-HT1B pEC50 (human 5-HT1B receptor [1]; WT receptor, cAMP accumulation, HEKt cells, mean ± SD): 8.46 ± 0.18
- 5-HT1B EMAX (%) (human 5-HT1B receptor [1]; WT receptor): 100 ± 1%
- 5-HT1D EMAX (%) (human 5-HT1D receptor [2]): 101 ± 1%
- change in potency (qualitative) (S5.42A 5-HT1B receptor): significant reduction

Compound: CN(C)[C@H]1CCc2c(cccc2-c2ccco2)C1 [(S)-FAT]
- Affinity (pKi ± SD) 5-HT1A (human 5-HT1A receptor [3]): 7.48 ± 0.06
- Ki (human 5-HT1B receptor [4]): 132 nM
- Ki (human 5-HT1D receptor [5]): 11.7 nM
- Ki (human 5-HT1F receptor): 9330 nM
- EC50 (human 5-HT1A receptor [6]): 490 nM
- Emax (human 5-HT1A receptor [6]; [7]): 92 ± 4%
- EC50 (human 5-HT1B receptor [1]; [8]): 117 nM
- Emax (human 5-HT1B receptor [1]): 102 ± 3%
- EC50 (human 5-HT1D receptor [2]): 12 nM
- Emax (human 5-HT1D receptor [2]): 100 ± 2%

Compound: CN(C)[C@H]1CCc2c(cccc2-c2cccn2C)C1 [(S)-NMP]
- Ki (human 5-HT1A receptor [3]): 20.4 nM
- Ki (human 5-HT1B receptor [4]): 5.75 nM
- Ki (human 5-HT1D receptor [5]): 3.98 nM
- Ki (human 5-HT1F receptor): > 10000 nM
- EC50 (human 5-HT1A receptor [6]): 27.5 nM
- Emax (human 5-HT1A receptor [6]; [7]): < 85%
- 5-HT1A EMAX (%) (human 5-HT1A receptor [6]; WT receptor, normalized to basal (0%) and 10 μM 5-CT (100%)): 70 ± 5%
- EC50 (human 5-HT1B receptor [1]; [8]): 11.2 nM
- 5-HT1B EMAX (%) (human 5-HT1B receptor [1]; WT receptor): 54 ± 5%
- EC50 (human 5-HT1D receptor [2]): 8.32 nM
- Emax (human 5-HT1D receptor [2]): < 85%
- 5-HT1D EMAX (%) (human 5-HT1D receptor [2]): 66 ± 6%

Compound: CN(C)[C@H]1CCc2c(cccc2-c2cccs2)C1 [(S)-TAT]
- Ki (human 5-HT1A receptor [3]): 6.17 nM
- Ki (human 5-HT1B receptor [4]): 6.31 nM
- Ki (human 5-HT1D receptor [5]): 1.7 nM
- Ki (human 5-HT1F receptor): > 10000 nM
- EC50 (human 5-HT1A receptor [6]): 23.4 nM
- Emax (human 5-HT1A receptor [6]; [7]): 91 ± 3%
- EC50 (human 5-HT1B receptor [1]; [8]): 15.8 nM
- Emax (human 5-HT1B receptor [1]): 85 ± 4%
- EC50 (human 5-HT1D receptor [2]): 41.7 nM
- Emax (human 5-HT1D receptor [2]): 60 ± 3%
